Data reported in patent US11851409B2, “Deuterated benzylaminopyrimidinedione derivatives and use thereof” (QINGDAO JI'AO PHARMACEUTICAL TECHNOLOGY CO., LTD, priority 2019, dated 2023).

Assay: Pharmacokinetic test in SD rats
Format: in vivo
Details: male, plasma, rat, iv, 1 mg/kg; for Vd: read-out: Vss
Method: Experimental animals: 4 healthy adult male SD rats (purchased from Hunan SJA Laboratory Animal Co., Ltd) were divided into two groups, […].
Drug preparation: a certain amount of the compound of the present disclosure or MYK461 is weighted, and 10% DMSO, 10% Kolliphor HS15 and 80% saline are added to prepare the compound solution with target concentration.
Administration and sample collection: the animals fasted for 12 h before administration, ate in 3 h after administration, and were administered by intravenous administration (IV, 1 mg/kg) through the posterior limb vein of SD rats and orally intragastric administration (PO, 5 mg/kg), respectively. Then, blood samples were collected from the tail vein of rats at time points of 0, 0.083, 0.25, 0.5, 1, 2, 4, 6, 8, and 24 h, respectively, and the blood volume was about 200-400 μL/time point. After collecting whole blood at each time point, the blood samples were placed in K2EDTA anticoagulant test tubes, which were placed in an incubator with ice packs for preservation. All the samples were centrifuged at 4600 r/min at 4° C. for 5 min within 15 min to obtain plasma. The concentrations of different compounds in rat plasma after administration were determined by LC/MS/MS method. Pharmacokinetic parameters were calculated according to the drug concentration-time curve.

`[2H]c1c([2H])c([2H])c([C@H](C)Nc2cc(=O)n(C(C)C)c(=O)[nH]2)c([2H])c1[2H]` [Example 1, (S)-3-isopropyl-6-((1-(phenyl-d5)ethyl)amino)pyrimidine-2,4(1H,3H)-dione] gave an AUC(0-inf) of 6830 ng·h/mL, an AUC(0-t) of 3670 ng·h/mL and a Cmax of 883 ng/mL. For the same compound, the MRT inf was 31.1 h, the Tmax was 4.98 min and the clearance was 2.44 mL/min/kg. It also gave a half-life of 1360 min and a Vd of 4.56 L/kg.

In the case of `[2H]c1ccc([C@H](C)Nc2cc(=O)n(C(C)C)c(=O)[nH]2)cc1` [Example 2, (S)-3-isopropyl-6-((1-(phenyl-4-d)ethyl)amino)pyrimidine-2,4(1H,3H)-dione], the AUC(0-inf) is reported as 4670 ng·h/mL, the AUC(0-t) is reported as 3290 ng·h/mL and the Cmax is reported as 643 ng/mL. The MRT inf was 18.8 h, the Tmax was 4.98 min and the clearance was 3.57 mL/min/kg. It also gave a half-life of 834 min and a Vd of 4.03 L/kg.

With `[2H]C([2H])([2H])C(n1c(=O)cc(N[C@@H](C)c2ccccc2)[nH]c1=O)C([2H])([2H])[2H]` [Example 5, (S)-6-((1-phenylethyl)amino)-3-(propane-2-yl-1,1,1,3,3,3-d6)pyrimidine-2,4 (1H,3H)-dione] the AUC(0-inf) was 5690 ng·h/mL, the AUC(0-t) was 4450 ng·h/mL and the Cmax was 982 ng/mL. For the same compound, the MRT inf was 14.8 h, the Tmax was 4.98 min and the clearance was 2.93 mL/min/kg. The half-life was 678 min and the Vd was 2.6 L/kg.

For `CC(C)n1c(=O)cc(N[C@@H](C)c2ccccc2)[nH]c1=O` [MYK461, reference compound], the AUC(0-inf) was 3090 ng·h/mL, the AUC(0-t) was 2420 ng·h/mL and the Cmax was 393 ng/mL. It also gave an MRT inf of 15.1 h, a Tmax of 4.98 min and a clearance of 5.39 mL/min/kg. The half-life was 696 min and the Vd was 4.87 L/kg.
